The record followed here is ChEMBL document CHEMBL3507680, “University of Dundee, Gates Library screen for HepG2 cell viability”.

SMILES strings stand for the structures.

This data set is described as follows: Human HepG2 cell viability assay in 384 well format. It is filed as toxicity, cell-based. More on the design: dose 125 nL, time 70.5 hour; cytotoxicity at 70.5 h: concentration not given beside the values. Particulars: HepG2 cells, read-out: Inhibition.

On to `CN(Cc1noc(C2CC2)n1)CC1CCN(CCO)CC1`, for which the cytotoxicity at 70.5 h came to 14.4%. Next, `Cc1noc(CN(C)CC2CCN(CCO)CC2)n1`: 5%; `O=C(NCc1ccccc1CN1CCOCC1)c1ccc(Br)cc1F`: 2.01%.

With `COc1ccc(C(CNC(=O)c2cnc(C)cn2)N2CCOCC2)cc1` (stereo not given), the cytotoxicity at 70.5 h is -3.63%. The same measure for `CN1CCN(Cc2ccccc2CNC(=O)c2ccc(Cl)cc2F)CC1`: 3.69%; for `CN1CCN(Cc2ccccc2CNC(=O)c2cc(Br)ccc2F)CC1`: 10.8%. In the case of `Cc1ccccc1N1CCN(C(=O)c2cccnc2-n2cncn2)CC1`, the cytotoxicity at 70.5 h was -6.93%. The same measure for `CC(C(=O)NCc1ccnc(OC2CCCC2)c1)n1cncn1` (stereo not given): -3.9%; for `N#Cc1cccnc1NCCNC(=O)N1CCSCC1`: 9.49%; for `N#Cc1cccnc1NCCNC(=O)N1CCCC(N2CCCC2)C1` (stereo not given): 10.7%.

Consider `COc1ccccc1C1(CNc2nnc(C)c(C)c2C#N)CCOCC1`, for which the cytotoxicity at 70.5 h was -5.67%. Next, `CCN(CC)C(=O)CSc1ccc(C(F)(F)F)cn1`: -6.72%; `O=C(Cc1cccc(F)c1)NCCNCC1CNc2ccnn2C1` (stereo not given): 15.5%.

For the molecule `CC(C)C(=O)NCc1ccnc(Oc2ccc(F)cc2)c1`, the cytotoxicity at 70.5 h was -5.04%.

Consider `CCN1CCN(C(=O)c2ccnc(N(C)C)c2)CC1`, for which the cytotoxicity at 70.5 h turned out to be 3.26%. Take `CC(NC(N)=O)C(=O)NCc1ccnc(Oc2ccc(F)cc2)c1` (stereo not given): the cytotoxicity at 70.5 h was -0.577%. For `CC(C)(C)c1noc(OCC(=O)NCC(F)(F)F)n1`, the cytotoxicity at 70.5 h was -0.303%. In the case of `CC(C)(C)c1noc(OCC(=O)NC2CCCC2)n1`, the cytotoxicity at 70.5 h came to 0.264%. The same measure for `CN(C)c1cccc(C(=O)NCC2(O)CCOCC2)c1`: -0.873%; for `Cc1nnc(NCC2(c3ccccc3)CCC2)c(C#N)c1C`: 2.86%.

In the case of `CCc1nnc(CN2CCN(C(C)=O)CC2)o1`, the cytotoxicity at 70.5 h was -1.65%. Next, `COCC(=O)N1CCN(Cc2nnc(C(C)(C)C)o2)CC1`: -1.83%; `CCC(C)C(=O)NCc1cccc(OCCN(C)C2CCOCC2)c1` (stereo not given): 16.4%; `O=C(c1cccnc1-n1cncn1)N1CCC(Nc2ccccc2)CC1`: -0.978%. The same measure for `Cc1cnn(CC2CCCCN2CC(=O)N(C)Cc2ccc(C)o2)c1` (stereo not given): -2.13%; for `Cc1ccc(CN(C)C(=O)CN2CCCC2c2cnn(C)c2)o1` (stereo not given): 16.6%; for `Cc1cnn(CC2CCCN2CC(=O)N(C)Cc2ccsc2)c1` (stereo not given): -2.74%. The same measure for `C=C(C)CNC1CCCN(Cc2noc(C3CC3)n2)C1` (stereo not given): -5.26%.

Take `C1CCC(CNC2CCCN(Cc3noc(C4CC4)n3)C2)C1` (stereo not given): the cytotoxicity at 70.5 h is -10.4%. The same measure for `CCC(NCc1ncc[nH]1)c1nc(C(F)(F)F)cs1` (stereo not given): -4.3%. The same measure for `O=C(NC1(c2nccs2)CCCC1)c1cc(C2CC2)on1`: -3.31%; for `N#Cc1cc(Br)ccc1NC1CCN(CC(N)=O)CC1`: -2.02%; for `N#Cc1c(N2CCN(CC3CCOC3)CC2)nc2ccccn12` (stereo not given): -1.45%. The same measure for `CC(C)N1CCC(Nc2ccn(Cc3ccccn3)n2)C1=O` (stereo not given): 1.71%; for `COc1ccccc1C(=O)N1CCC(O)(c2cccc(C)c2C)CC1`: 11.7%. As to `Cc1cnn(CC2CCCN2C(=O)c2sccc2C#N)c1` (stereo not given), the cytotoxicity at 70.5 h is -2.76%. Next, `O=c1oc(-c2ccc(F)cc2)nn1CCc1ccncc1`: -9.83%.

Take `O=c1oc(-c2ccc(F)cc2)nn1CCS(=O)(=O)c1ccccc1`: the cytotoxicity at 70.5 h was -9.58%. The same measure for `CC(=O)Nc1nc(C(=O)NCCOc2ccccc2)cs1`: -6.89%.

For `CC(=O)Nc1nc(C(=O)NCCOc2ccc(C)cc2)cs1`, the cytotoxicity at 70.5 h was determined as 13.3%. The same measure for `CCOCc1ccccc1CNc1ccc2nncn2n1`: -5.87%; for `Cn1ccnc1COc1ccc(CSc2nnnn2C2CC2)cc1`: 6.53%. The same measure for `NC(=O)Cn1ccc(NC(=O)C2(c3ccc(F)cc3)CC2)n1`: -11.2%; for `Cc1ccc(CN(C)C(=O)CN2CCCC2c2cnn(C)c2)cc1` (stereo not given): -6.75%.

In the case of `O=C(CNc1ccc(F)cc1OCC(F)(F)F)NCc1ccco1`, the cytotoxicity at 70.5 h is -10.6%.

With `CCOc1cc(C(=O)N(C)C)ccc1NC(=O)c1ccsc1`, the cytotoxicity at 70.5 h was -9.1%.

For the molecule `Cc1cc(CNC(=O)Cc2cccs2)ccc1S(C)(=O)=O`, the cytotoxicity at 70.5 h is 4.24%. Turning to `Cc1cccc(OC2CCN(c3nccnc3C#N)CC2)n1`, the cytotoxicity at 70.5 h was 4.46%. Take `Cc1cccc(OC2CCN(c3ccc(C#N)cn3)CC2)n1`: the cytotoxicity at 70.5 h is -1.77%.

Turning to `O=C(N1CCOCC1)N1CCN(c2ccnc3ccsc23)CC1`, the cytotoxicity at 70.5 h was 39.2%. Next, `CC1CCN(S(=O)(=O)N2CCn3cccc3C2C)CC1` (stereo not given): -4.61%; `COCCn1cc(NCc2c[nH]nc2C(C)(C)C)cn1`: -4.3%. Next, `COCCn1cc(NCc2c[nH]nc2-c2ccc(OC)cc2)cn1`: -5.02%; `CN(c1ncnc2c1cnn2C)C1CCCN(c2cccnn2)C1` (stereo not given): 0.765%; `CN(c1ncnc2ccccc12)C1CCCN(c2cccnn2)C1` (stereo not given): -12.6%. The same measure for `C=C(C)CN(CC)Cc1nc(C)no1`: -6.47%. For the molecule `CCC(CC)C(CNC(=O)Nc1ccc(OC)cc1)N1CCOCC1` (stereo not given), the cytotoxicity at 70.5 h was -12.2%. As for `CCn1c(C)cc(C(=O)NCc2cccc(NS(C)(=O)=O)c2)c1C`, the cytotoxicity at 70.5 h was found to be 16.2%. Next, `Cc1noc(C)c1CN(Cc1ccccc1)C(C)CN1CCOCC1` (stereo not given): -9.44%; `O=S(=O)(C/C=C/c1ccccc1)Cc1nc(C2CC2)no1`: -11.4%.

For the molecule `CCC(CC)C(CNC(=O)Nc1cnn(CCOC)c1)N(C)C` (stereo not given), the cytotoxicity at 70.5 h is -8.7%. Next, `CC(CN1CCOCC1)N(Cc1ccccc1)Cc1ccncc1` (stereo not given): -6.88%. Next, `Cc1cc(C(=O)Nc2ccc(OC3CCOCC3)c(C)c2)[nH]n1`: -17.3%. Next, `Cc1ccc(C(NC(=O)Cn2cc(C3CC3)nn2)C2CC2)cc1` (stereo not given): -7.56%; `O=C(NCc1ncc[nH]1)c1c(F)cccc1I`: 11.2%. With `Cc1ccccc1C(NC(=O)Cn1cc(C2CC2)nn1)C1CC1` (stereo not given), the cytotoxicity at 70.5 h is -3.63%. Next, `Cc1c(I)cccc1C(=O)NCc1nnc[nH]1`: -8.8%; `CNC(=O)c1cccc(CNC(C)c2ccc(F)cc2N(C)C)c1` (stereo not given): -7.51%; `Cc1n[nH]c(C)c1C1CCCN1C(=O)c1cc(Br)c[nH]1` (stereo not given): 12.3%. The same measure for `CCN(C(=O)c1cccc2c1OCO2)c1ccc(Br)cn1`: -7.06%; for `NC(=O)c1cccc(CCNC(=O)N2Cc3ccccc3C2)c1`: -2.71%; for `Cc1oc(CN(C)C(=O)c2ccc(Br)cc2)cc1C(=O)O`: -8.74%. For the molecule `CNC(=O)c1cccc(CNC(C)c2cc(C)ccc2OC(F)F)c1` (stereo not given), the cytotoxicity at 70.5 h is -7.54%.

For the molecule `Cc1noc(C)c1CN(Cc1ccccc1)C(C)C`, the cytotoxicity at 70.5 h was found to be 12.4%. The same measure for `Cc1n[nH]c(C)c1C1CCCN1C(=O)c1coc(Br)c1` (stereo not given): -5.01%.

Consider `CN(Cc1cccs1)C(=O)CNC1CCc2ncnn2C1` (stereo not given), for which the cytotoxicity at 70.5 h is -5.9%. The same measure for `C=C(C)CN(CC)Cc1nc(C(C)(C)C)no1`: 10.8%. As for `CC(C)N(CCNC(=O)c1ccc(S(=O)(=O)NC2CC2)cc1)C(C)C`, the cytotoxicity at 70.5 h was 25.6%. The same measure for `COc1ccc(NC(C)=O)cc1OCc1cccnc1`: 29.5%; for `COc1ccc(NC(=O)C(C)(C)C)cc1OCc1cccnc1`: 3.3%. The same measure for `CCC(CNC(=O)Cc1c(C)noc1C)N1CCCC1` (stereo not given): -6.77%.

As for `Cc1noc(C)c1CC(=O)NCC(CC(C)C)N1CCOCC1` (stereo not given), the cytotoxicity at 70.5 h is -4.86%. As for `Cc1noc(C)c1CC(=O)NCC(C)N1CCOCC1` (stereo not given), the cytotoxicity at 70.5 h is -2.99%. The same measure for `O=C(Nc1c(F)cccc1Oc1ccccc1)C1CCS(=O)(=O)C1` (stereo not given): -1.02%. As for `CCNC(=O)NC(=O)CN1CCOC(c2ccccc2Cl)C1` (stereo not given), the cytotoxicity at 70.5 h was -9.68%. Next, `CC(O)CCN(C)c1nc2ccccc2c(=O)[nH]1` (stereo not given): -6.49%; `COCCC1(CNC(=O)NCC2CCC2)CCC1`: -0.0221%.

Consider `Cc1csc(CN2CC(CO)Oc3ccccc32)n1` (stereo not given), for which the cytotoxicity at 70.5 h came to 7.51%.

With `CN(CCC(F)(F)F)c1nc2ccccc2c(=O)[nH]1`, the cytotoxicity at 70.5 h is 0.426%.

Regarding `Cc1cc(-n2cncn2)ccc1C(=O)Nc1ccc(N2CCCC2)cn1`, the cytotoxicity at 70.5 h is -1.24%.

Take `CC(C)Cn1cc(NC(=O)N2CCOC(c3ccccc3)C2)cn1` (stereo not given): the cytotoxicity at 70.5 h is -4.35%.

For the molecule `CC(C)(C)C(=O)N1CCN(C(=O)Nc2cnn(CC(F)F)c2)CC1`, the cytotoxicity at 70.5 h was -7.22%.

For `COCCC1(CNC(=O)NCC2CCCN(C)C2)CCC1` (stereo not given), the cytotoxicity at 70.5 h was -12%. The same measure for `O=C(CCN1CCCCCC1c1ccco1)N1CCOCC1` (stereo not given): -9.92%. Next, `CC(C)c1nc(C2CCCN2CCN2CCCCC2)no1` (stereo not given): -5.16%; `CC(C)N(Cc1ccccn1)C(=O)CN(C)C(=O)c1cccs1`: -22.7%. Next, `CC1C(=O)NCCN1CCOc1ccc(C#N)cc1` (stereo not given): -21.1%. In the case of `CC(C)(C)c1n[nH]cc1CNC1CCC(O)CC1` (stereo not given), the cytotoxicity at 70.5 h is -19.6%. Consider `Cc1nc(NC(=O)NCCCN2CCC(C(N)=O)CC2)sc1C`, for which the cytotoxicity at 70.5 h is -19.5%.

Consider `CCC(Nc1ccc(CCN2CCOCC2)cc1)C(N)=O` (stereo not given), for which the cytotoxicity at 70.5 h was -19.6%. For `Cc1cc(F)ccc1N1CCCC(NC(=O)CCc2ccncc2)C1` (stereo not given), the cytotoxicity at 70.5 h was -23.5%. Consider `CCOC(=O)C(C)Nc1ccc(CCN2CCOCC2)cc1` (stereo not given), for which the cytotoxicity at 70.5 h is -16.3%.

For the molecule `O=C(CNc1ccc(OC2CCOC2)cc1)NCc1ccco1` (stereo not given), the cytotoxicity at 70.5 h was -21.4%. Take `Cc1ccc(Oc2cc(CN)ccn2)cc1C`: the cytotoxicity at 70.5 h was -22.3%. The same measure for `CC(C)(C)c1n[nH]cc1CNC1CCC(C(F)(F)F)CC1` (stereo not given): -0.127%.
